Literature values in patent publication US20160339123A1, “POLYBUTYLACRYLATE-BASED NANOCOMPOSITE PHOTOACOUSTIC IMAGING AGENT AND A PREPARATION METHOD THEREOF” (Wenzhou Institute of Biomaterials and Engineering, priority 2015, published 2016).

Conditions: near infrared region

absorption peak [nm]	SMILES
~664	CN(C)c1ccc2nc3ccc(=[N+](C)C)cc-3sc2c1 [methylene blue]
~780	CC1(C)C(/C=C/C=C/C=C/C=C2\N(CCCCS(=O)(=O)O)c3ccc4ccccc4c3C2(C)C)=[N+](CCCCS(=O)(=O)[O-])c2ccc3ccccc3c21 [indocyanine green]
